# In patent US8906909B2 (Curis, Inc., priority 2009, dated 2014):
# pIC50: −log10 of the molar value.
# Columns and labels:
# [1] = test system: HDACs (HeLa cell nuclear extracts); assay: HDAC enzymatic activity, Biomol Color de Lys system; type: biochemical
# Procedure, shortened: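 IC50 from sigmoidal dose-response fits of fluorescence (Ex 350–380, Em 440–460 nm). Compounds in DMSO dilution series incubated 1 h at 25 °C with HeLa nuclear extract HDACs and colorimetric substrate, pH 8.0 Tris/Cl buffer with NaCl, KCl, MgCl2, before developer termination.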
Structure (SMILES),melting point [°C],pIC50 [1]
"Cc1nc2ccc(-c3nc(N4CCOCC4)c4sc(CN(C)c5ncc(C(=O)NO)cn5)cc4n3)cc2[nH]1 [Compound 199, N-hydroxy-2-(methyl((2-(2-methyl-3H-benzo[d]imidazol-5-yl)-4-morpholinothieno[3,2-d]pyrimidin-6-yl)methyl)amino)pyrimidine-5-carboxamide]",230 to 233,> 7.00
"CN(Cc1cc2nc(-c3ccc(F)cc3)nc(N3CCOCC3)c2s1)c1ncc(C(=O)NO)cn1 [Compound 200, 2-(((2-(4-fluorophenyl)-4-morpholinothieno[3,2-d]pyrimidin-6-yl)methyl)(methyl)amino)-N-hydroxypyrimidine-5-carboxamide]",168 to 170,> 7.00
"Cc1ccc(-c2nc(N3CCOCC3)c3sc(CN(C)c4ncc(C(=O)NO)cn4)cc3n2)cc1 [Compound 201, N-hydroxy-2-(methyl((4-morpholino-2-p-tolylthieno[3,2-d]pyrimidin-6-yl)methyl)amino)pyrimidine-5-carboxamide]",170 to 172,> 7.00
"CN(Cc1cc2nc(-c3ccc(C(F)(F)F)cc3)nc(N3CCOCC3)c2s1)c1ncc(C(=O)NO)cn1 [Compound 202, N-hydroxy-2-(methyl((4-morpholino-2-(4-(trifluoromethyl)phenyl)thieno[3,2-d]pyrimidin-6-yl)methyl)amino)pyrimidine-5-carboxamide]",222 to 223,> 7.00
"Nc1ccc(-c2nc(N3CCOCC3)c3sc(CNc4ncc(C(=O)NO)cn4)cc3n2)cc1 [Compound 211, 2-((2-(4-aminophenyl)-4-morpholinothieno[3,2-d]pyrimidin-6-yl)methylamino)-N-hydroxypyrimidine-5-carboxamide]",217 to 223,> 7.00
"Nc1ncc(-c2nc(N3CCOCC3)c3sc(NS(=O)(=O)c4ccc(/C=C/C(=O)NO)cc4)cc3n2)cn1 [Compound 217, (E)-3-(4-(N-(2-(2-aminopyrimidin-5-yl)-4-morpholinothieno[3,2-d]pyrimidin-6-yl)sulfamoyl)phenyl)-N-hydroxyacrylamide]",> 300,> 7.00
"Nc1ncc(-c2nc(N3CCOCC3)c3sc(NS(=O)(=O)c4cccc(/C=C/C(=O)NO)c4)cc3n2)cn1 [Compound 218, (E)-3-(3-(N-(2-(2-aminopyrimidin-5-yl)-4-morpholinothieno[3,2-d]pyrimidin-6-yl)sulfamoyl)phenyl)-N-hydroxyacrylamide]",> 300,> 7.00
"COc1ccc(-c2nc(N3CCOCC3)c3sc(NS(=O)(=O)c4cccc(/C=C/C(=O)NO)c4)cc3n2)cn1 [Compound 221, (E)-N-hydroxy-3-(3-(N-(2-(6-methoxypyridin-3-yl)-4-morpholinothieno[3,2-d]pyrimidin-6-yl)sulfamoyl)phenyl)acrylamide]",> 300,> 7.00
"COc1ccc(-c2nc(N3CCOCC3)c3sc(NS(=O)(=O)c4ccc(/C=C/C(=O)NO)cc4)cc3n2)cn1 [Compound 222, N-Hydroxy-3-{4-[2-(6-methoxy-pyridin-3-yl)-4-morpholin-4-yl-thieno[3,2-d]pyrimidin-6-ylsulfamoyl]-phenyl}-acrylamide]",> 300,> 7.00
"Nc1ncc(-c2nc(N3CCOCC3)c3sc(NCCCC(=O)NO)cc3n2)cn1 [Compound 225, 4-(2-(2-aminopyrimidin-5-yl)-4-morpholinothieno[3,2-d]pyrimidin-6-ylamino)-N-hydroxybutanamide]",220 to 230,5.00 to 6.00
Nc1ncc(-c2nc(N3CCOCC3)c3sc(NCCCCC(=O)NO)cc3n2)cn1 [Compound 226],175 to 180,> 7.00
"CNc1ncc(-c2nc(N3CCOCC3)c3sc(NCCCCC(=O)NO)cc3n2)cn1 [Compound 227, N-Hydroxy-5-(2-(2-(methylamino)pyrimidin-5-yl)-4-morpholinothieno[3,2-d]pyrimidin-6-ylamino)pentanamide]",206 to 210,> 7.00
"Cc1ncc(-c2nc(N3CCOCC3)c3sc(NCCCCC(=O)NO)cc3n2)cn1 [Compound 229, N-Hydroxy-5-(2-(2-methylpyrimidin-5-yl)-4-morpholinothieno[3,2-d]pyrimidin-6-ylamino)pentanamide]",248 to 252,> 7.00
"Nc1ncc(-c2nc(N3CCOCC3)c3sc(NCCCCCC(=O)NO)cc3n2)cn1 [Compound 232, 6-[2-(2-Amino-pyrimidin-5-yl)-4-morpholin-4-yl-thieno[3,2-d]pyrimidin-6-ylamino]-hexanoic acid hydroxyamide]",220 to 225,> 7.00
"COc1ccc(-c2nc(N3CCOCC3)c3sc(NCCCCCC(=O)NO)cc3n2)cn1 [Compound 233, 6-[2-(6-Methoxy-pyridin-3-yl)-4-morpholin-4-yl-thieno[3,2-d]pyrimidin-6-ylamino]-hexanoic acid hydroxyamide]",125 to 130,> 7.00
"Nc1ncc(-c2nc(N3CCOCC3)c3sc(NCCCCCCC(=O)NO)cc3n2)cn1 [Compound 234, 7-[2-(2-Amino-pyrimidin-5-yl)-4-morpholin-4-yl-thieno[3,2-d]pyrimidin-6-ylamino]-heptanoic acid hydroxyamide]",235 to 240,> 7.00
"CNc1ccc(-c2nc(N3CCOCC3)c3sc(C(C)N(C)c4ncc(C(=O)NO)cn4)cc3n2)cn1 (stereo not drawn) [Compound 237, N-Hydroxy-2-(methyl(1-(2-(6-(methylamino)pyridin-3-yl)-4-morpholinothieno[3,2-d]pyrimidin-6-yl)ethyl)amino)pyrimidine-5-carboxamide]",270 to 275,> 7.00
"CNc1ccc(-c2nc(N3CCOCC3)c3sc(C(C)(C)Nc4ncc(C(=O)NO)cn4)cc3n2)cn1 [Compound 240, N-Hydroxy-2-(2-(2-(6-(methylamino)pyridin-3-yl)-4-morpholinothieno[3,2-d]pyrimidin-6-yl)propan-2-ylamino)pyrimidine-5-carboxamide]",200 to 205,> 7.00
"CN(Cc1cc2nc(-c3cnn(C)c3)nc(N3CCOCC3)c2s1)c1ncc(C(=O)NO)cn1 [Compound 246, N-Hydroxy-2-(methyl((2-(1-methyl-1H-pyrazol-4-yl)-4-morpholinothieno[3,2-d]pyrimidin-6-yl)methyl)amino)pyrimidine-5-carboxamide]",164 to 169,> 7.00
"COc1ccc(-c2nc(N3CCOCC3)c3sc(C(C)(C)N(C)c4ncc(C(=O)NO)cn4)cc3n2)cn1 [Compound 251, N-Hydroxy-2-((2-(2-(6-methoxypyridin-3-yl)-4-morpholinothieno[3,2-d]pyrimidin-6-yl)propan-2-yl)(methyl)amino)pyrimidine-5-carboxamide]",175 to 178,> 7.00
"COc1ccc(-c2nc(N3CCOCC3)c3sc(S(=O)(=O)Nc4ncc(C(=O)NO)cn4)cc3n2)cn1 [Compound 252, 2-[2-(6-Methoxy-pyridin-3-yl)-4-morpholin-4-yl-thieno[3,2-d]pyrimidine-6-sulfonylamino]-pyrimidine-5-carboxylic acid hydroxyamide]",259 to 265,> 7.00
